Experimental data published in PubChem BioAssay (NCI).
Several values for one entry are separate records, joined by “and”; a condition that tells them apart may be missing. Equal entries are not always repeated.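 Assay format: 96-well plates, 48-hour exposure. GI50 = concentration required for 50% inhibition of growth. TGI: total growth inhibition.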

Assays:
Assay in all cases: NCI tumour cell line growth inhibition, 48 h
SK-OV-3 ovarian = system: SK-OV-3 ovarian
KM12 colon = system: KM12 colon
HOP-62 NSCLC = system: HOP-62 NSCLC
SW-620 colon = system: SW-620 colon
NCI-H226 lung = system: NCI-H226 lung
DU-145 prostate = system: DU-145 prostate
RPMI-8226 leukemia = system: RPMI-8226 leukemia
MCF7 breast = system: MCF7 breast
HOP-92 NSCLC = system: HOP-92 NSCLC
NCI-H23 lung = system: NCI-H23 lung
ACHN renal = system: ACHN renal
HCT-15 colon = system: HCT-15 colon
BT-549 breast = system: BT-549 breast
SK-MEL-2 melanoma = system: SK-MEL-2 melanoma
P388/ADR leukemia = system: P388/ADR leukemia
SF-295 CNS = system: SF-295 CNS
SK-MEL-5 melanoma = system: SK-MEL-5 melanoma
U251 CNS = system: U251 CNS
SN12C renal = system: SN12C renal
SK-MEL-28 melanoma = system: SK-MEL-28 melanoma
SNB-75 CNS = system: SNB-75 CNS
MDA-MB-435 = system: MDA-MB-435
DMS 114 small cell lung = system: DMS 114 small cell lung
M14 melanoma = system: M14 melanoma
OVCAR-3 ovarian = system: OVCAR-3 ovarian
MDA-MB-231 breast = system: MDA-MB-231 breast
MOLT-4 leukemia = system: MOLT-4 leukemia
HCC-2998 colon = system: HCC-2998 colon
MALME-3M melanoma = system: MALME-3M melanoma
HS 578T breast = system: HS 578T breast
SNB-78 CNS = system: SNB-78 CNS
T-47D breast = system: T-47D breast
NCI/ADR-RES ovarian = system: NCI/ADR-RES ovarian
PC-3 prostate = system: PC-3 prostate
UACC-257 melanoma = system: UACC-257 melanoma
LOX IMVI melanoma = system: LOX IMVI melanoma
NCI-H522 lung = system: NCI-H522 lung
UO-31 renal = system: UO-31 renal
MDA-N = system: MDA-N
OVCAR-4 ovarian = system: OVCAR-4 ovarian
DMS 273 small cell lung = system: DMS 273 small cell lung
OVCAR-5 ovarian = system: OVCAR-5 ovarian
A498 renal = system: A498 renal
NCI-H460 lung = system: NCI-H460 lung
HL-60(TB) leukemia = system: HL-60(TB) leukemia
DLD-1 colon = system: DLD-1 colon
K-562 leukemia = system: K-562 leukemia
EKVX NSCLC = system: EKVX NSCLC
M19-MEL melanoma = system: M19-MEL melanoma
SF-268 CNS = system: SF-268 CNS
CCRF-CEM leukemia = system: CCRF-CEM leukemia

In the case of `CCN(CC)CCOc1cccc2nc3c(cc12)Cn1c-3cc2c(c1=O)COC(=O)C2(O)CC` (stereo not given), the GI50 (SK-OV-3 ovarian) is reported as 4.39 µM, the TGI (SK-OV-3 ovarian) is reported as > 43.4 µM and the GI50 (KM12 colon) is reported as 4.53 µM and 7.49 µM. For the same compound, the TGI (KM12 colon) was 18.5 µM and 25.6 µM, the GI50 (HOP-62 NSCLC) was 0.356 µM and the TGI (HOP-62 NSCLC) was 2.63 µM. The GI50 (SW-620 colon) was 2.17 µM and 4.33 µM, the TGI (SW-620 colon) was 29.7 µM and 36.6 µM and the GI50 (NCI-H226 lung) was 0.963 µM and 2.23 µM. For the same compound, the TGI (NCI-H226 lung) was 10.9 µM and 16.8 µM, the GI50 (DU-145 prostate) was 0.423 µM and the TGI (DU-145 prostate) was 3.77 µM. The GI50 (RPMI-8226 leukemia) was 1.47 µM, the TGI (RPMI-8226 leukemia) was 22.5 µM and the GI50 (MCF7 breast) was 0.182 µM and 0.449 µM. For the same compound, the TGI (MCF7 breast) was 14.9 µM and 22.4 µM, the GI50 (HOP-92 NSCLC) was 5.42 µM and 4.83 µM and the TGI (HOP-92 NSCLC) was 22.5 µM and 18.3 µM. The GI50 (NCI-H23 lung) was 0.506 µM and 0.87 µM, the TGI (NCI-H23 lung) was 4.19 µM and 4.86 µM and the GI50 (ACHN renal) was 0.675 µM. The TGI (ACHN renal) was > 100 µM, the GI50 (HCT-15 colon) was 5.14 µM and 8.13 µM and the TGI (HCT-15 colon) was 26.1 µM and 37.8 µM. For the same compound, the GI50 (BT-549 breast) was 2.99 µM, the TGI (BT-549 breast) was 17.2 µM and the GI50 (SK-MEL-2 melanoma) was 12.3 µM and 17.9 µM. The TGI (SK-MEL-2 melanoma) was 25.3 µM and 39.6 µM, the GI50 (P388/ADR leukemia) was 2.56 µM and the TGI (P388/ADR leukemia) was 8.27 µM. For the same compound, the GI50 (SF-295 CNS) was 0.261 µM and 0.691 µM, the TGI (SF-295 CNS) was 5.19 µM and 9.4 µM and the GI50 (SK-MEL-5 melanoma) was 1.08 µM. For the same compound, the TGI (SK-MEL-5 melanoma) was 6.31 µM, the GI50 (U251 CNS) was 0.0867 µM and 0.358 µM and the TGI (U251 CNS) was 1.43 µM and 11.1 µM. The GI50 (SN12C renal) was 0.266 µM and 0.747 µM, the TGI (SN12C renal) was 9.16 µM and > 41.5 µM and the GI50 (SK-MEL-28 melanoma) was 7.51 µM and 12.3 µM. For the same compound, the TGI (SK-MEL-28 melanoma) was 20.7 µM and 30 µM, the GI50 (SNB-75 CNS) was 1.34 µM and 0.545 µM and the TGI (SNB-75 CNS) was 19.5 µM and 5.09 µM. The GI50 (MDA-MB-435) was 12.2 µM, the TGI (MDA-MB-435) was 28.2 µM and the GI50 (DMS 114 small cell lung) was 0.139 µM and 0.206 µM. For the same compound, the GI50 (M14 melanoma) was 1.11 µM, the TGI (M14 melanoma) was 11.5 µM and the GI50 (OVCAR-3 ovarian) was 5.64 µM and 9.73 µM. For the same compound, the TGI (OVCAR-3 ovarian) was 20.3 µM and 25.9 µM, the GI50 (MDA-MB-231 breast) was 19.8 µM and the TGI (MDA-MB-231 breast) was 46.4 µM. The GI50 (MOLT-4 leukemia) was 0.103 µM, the GI50 (HCC-2998 colon) was 7.1 µM and the TGI (HCC-2998 colon) was 21.8 µM. For the same compound, the GI50 (MALME-3M melanoma) was 11.1 µM and 12.3 µM, the TGI (MALME-3M melanoma) was 24.6 µM and 25 µM and the GI50 (HS 578T breast) was 83.9 µM. For the same compound, the TGI (HS 578T breast) was > 100 µM, the GI50 (SNB-78 CNS) was 14.1 µM and the TGI (SNB-78 CNS) was 80.2 µM. The GI50 (T-47D breast) was 0.739 µM, the TGI (T-47D breast) was 7.25 µM and the GI50 (NCI/ADR-RES ovarian) was 0.886 µM and 3.07 µM. The TGI (NCI/ADR-RES ovarian) was 18 µM and 19.1 µM, the GI50 (PC-3 prostate) was 4.62 µM and the TGI (PC-3 prostate) was > 100 µM. The GI50 (UACC-257 melanoma) was 11 µM and 7.08 µM, the TGI (UACC-257 melanoma) was 23.1 µM and 21 µM and the GI50 (LOX IMVI melanoma) was 0.429 µM and 0.508 µM. For the same compound, the TGI (LOX IMVI melanoma) was 11.3 µM and 12.1 µM, the GI50 (NCI-H522 lung) was 7.54 µM and 1.36 µM and the TGI (NCI-H522 lung) was 23.1 µM and 14.5 µM. For the same compound, the GI50 (UO-31 renal) was 1.8 µM and 3.19 µM, the TGI (UO-31 renal) was 8.7 µM and 11.9 µM and the GI50 (MDA-N) was 13 µM. For the same compound, the TGI (MDA-N) was 35.1 µM, the GI50 (OVCAR-4 ovarian) was 11.2 µM and 8.77 µM and the TGI (OVCAR-4 ovarian) was 25.9 µM and 29.1 µM. For the same compound, the GI50 (DMS 273 small cell lung) was 0.086 µM and 0.33 µM, the TGI (DMS 273 small cell lung) was 1.58 µM and 11.8 µM and the GI50 (OVCAR-5 ovarian) was 0.45 µM and 3.46 µM. For the same compound, the TGI (OVCAR-5 ovarian) was 3.81 µM and 32.7 µM, the GI50 (A498 renal) was 2.13 µM and 3.91 µM and the TGI (A498 renal) was 6.74 µM and 18.2 µM. The GI50 (NCI-H460 lung) was 0.0754 µM and 0.282 µM, the TGI (NCI-H460 lung) was 1.88 µM and 11.8 µM and the GI50 (HL-60(TB) leukemia) was 0.304 µM. The TGI (HL-60(TB) leukemia) was 1.95 µM, the GI50 (DLD-1 colon) was 10.9 µM and the TGI (DLD-1 colon) was 38.8 µM. The GI50 (K-562 leukemia) was 2.53 µM, the TGI (K-562 leukemia) was > 46.9 µM and the GI50 (EKVX NSCLC) was 7.37 µM. The TGI (EKVX NSCLC) was > 40 µM, the GI50 (M19-MEL melanoma) was 3.74 µM and 2.38 µM and the TGI (M19-MEL melanoma) was 18.5 µM and 17 µM. The GI50 (SF-268 CNS) was 0.212 µM and 0.188 µM, the TGI (SF-268 CNS) was 11.7 µM and the GI50 (CCRF-CEM leukemia) was 0.0125 µM and 0.0735 µM. The TGI (CCRF-CEM leukemia) was 0.791 µM.
